Assay results taken from the supplement of paper PMC11451515.

Tested on: NOMO1
Test: cell viability relative to DMSO control; higher = less cytotoxic
Details: 48 h
Procedure, shortened: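 Viability is a per-plate percentage relative to DMSO wells, with cell-free wells as background. CellTiter-Glo One luminescence was read after 48 h at 37°C on 1536-well plates (5 μl) of NOMO1 or SEM (500 cells/well) or P12-Ichikawa (1000 cells/well) leukemia cells. The cells had been adapted for at least four passages in each medium and pin-dosed with library compounds in DMSO from 47 μM to 0.79 nM in 11 threefold steps.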

[1] = HPLM + 10% dialyzed FBS, 0.000781 µM
[2] = HPLM + 10% dialyzed FBS, 0.00234 µM
[3] = HPLM + 10% dialyzed FBS, 0.00702 µM
[4] = HPLM + 10% dialyzed FBS, 0.0211 µM
[5] = HPLM + 10% dialyzed FBS, 0.0632 µM
[6] = HPLM + 10% dialyzed FBS, 0.19 µM
[7] = HPLM + 10% dialyzed FBS, 0.569 µM
[8] = HPLM + 10% dialyzed FBS, 1.71 µM
[9] = HPLM + 10% dialyzed FBS, 5.12 µM
[10] = HPLM + 10% dialyzed FBS, 15.4 µM
[11] = HPLM + 10% dialyzed FBS, 46.1 µM
[12] = RPMI 5 mM glucose + 10% FBS, 0.000781 µM
[13] = RPMI 5 mM glucose + 10% FBS, 0.00234 µM
[14] = RPMI 5 mM glucose + 10% FBS, 0.00702 µM
[15] = RPMI 5 mM glucose + 10% FBS, 0.0211 µM
[16] = RPMI 5 mM glucose + 10% FBS, 0.0632 µM
[17] = RPMI 5 mM glucose + 10% FBS, 0.19 µM
[18] = RPMI 5 mM glucose + 10% FBS, 0.569 µM
[19] = RPMI 5 mM glucose + 10% FBS, 1.71 µM
[20] = RPMI 5 mM glucose + 10% FBS, 5.12 µM
[21] = RPMI 5 mM glucose + 10% FBS, 15.4 µM
[22] = RPMI 5 mM glucose + 10% FBS, 46.1 µM
[23] = RPMI 5 mM glucose + 10% dialyzed FBS, 0.000781 µM
[24] = RPMI 5 mM glucose + 10% dialyzed FBS, 0.00234 µM
[25] = RPMI 5 mM glucose + 10% dialyzed FBS, 0.00702 µM
[26] = RPMI 5 mM glucose + 10% dialyzed FBS, 0.0211 µM
[27] = RPMI 5 mM glucose + 10% dialyzed FBS, 0.0632 µM
[28] = RPMI 5 mM glucose + 10% dialyzed FBS, 0.19 µM
[29] = RPMI 5 mM glucose + 10% dialyzed FBS, 0.569 µM
[30] = RPMI 5 mM glucose + 10% dialyzed FBS, 1.71 µM
[31] = RPMI 5 mM glucose + 10% dialyzed FBS, 5.12 µM
[32] = RPMI 5 mM glucose + 10% dialyzed FBS, 15.4 µM
[33] = RPMI 5 mM glucose + 10% dialyzed FBS, 46.1 µM

SMILES | cell viability [1] [%] | cell viability [2] [%] | cell viability [3] [%] | cell viability [4] [%] | cell viability [5] [%] | cell viability [6] [%] | cell viability [7] [%] | cell viability [8] [%] | cell viability [9] [%] | cell viability [10] [%] | cell viability [11] [%] | cell viability [12] [%] | cell viability [13] [%] | cell viability [14] [%] | cell viability [15] [%] | cell viability [16] [%] | cell viability [17] [%] | cell viability [18] [%] | cell viability [19] [%] | cell viability [20] [%] | cell viability [21] [%] | cell viability [22] [%] | cell viability [23] [%] | cell viability [24] [%] | cell viability [25] [%] | cell viability [26] [%] | cell viability [27] [%] | cell viability [28] [%] | cell viability [29] [%] | cell viability [30] [%] | cell viability [31] [%] | cell viability [32] [%] | cell viability [33] [%]
Clc1ccc(CCC(Cn2ccnc2)Sc2c(Cl)cccc2Cl)cc1 (centres undefined) | 87.3 | 85.2 | 98 | 103 | 107 | 90.8 | 98.5 | 87 | 93.9 | 93.6 | 90.4 | 77.8 | 80.1 | 86.7 | 83.4 | 89.2 | 88.2 | 86.9 | 85.5 | 85.5 | 81.7 | 79.8 | 87.5 | 83.4 | 94.1 | 89.5 | 95.2 | 94.7 | 90.1 | 96.2 | 83.8 | 102 | 70.7
CC(C)[C@]12O[C@H]1[C@@H]3O[C@@]34[C@@]5(C)CC\C6=C(COC6=O)/[C@@H]5C[C@@H]7O[C@]47[C@@H]2O | 118 | 7.83 | 7.37 | 6.84 | 8.16 | 7.58 | 7.57 | 6.99 | 6.9 | 3.84 | 2.95 | 107 | 6.29 | 7.04 | 6.27 | 7.93 | 7.51 | 6.66 | 6.58 | 5 | 4.13 | 1.89 | 106 | 5.9 | 5.75 | 5.32 | 6.01 | 6.39 | 5.39 | 5.08 | 4.8 | 3.96 | 2.22
O=C1\C=C(OC2=C(C=CC=C12)C3=CC=CC4=C3SC5=C4C=CC=C5)\N6CCOCC6 | 123 | 123 | 129 | 128 | 135 | 121 | 135 | 133 | 114 | 132 | 112 |  |  |  |  |  |  |  |  |  |  |  | 113 | 121 | 125 | 131 | 128 | 129 | 133 | 136 | 116 | 117 | 107
CCCC[S+](=N)([O-])CCC(N)C(=O)O (centres undefined) | 120 | 122 | 138 | 138 | 157 | 131 | 150 | 142 | 148 | 89.2 | 28.7 |  |  |  |  |  |  |  |  |  |  |  |  |  |  |  |  |  |  |  |  |  | 
O=C(Nc1cccnc1)N1CCC(Cc2cccc(Oc3ccc(C(F)(F)F)cn3)c2)CC1 | 98.9 | 112 | 108 | 116 | 115 | 115 | 116 | 91.4 | 81.3 | 32.6 | 19 | 111 | 104 | 99.7 | 98.6 | 110 | 107 | 108 | 101 | 108 | 35.1 | 23 | 98.2 | 103 | 92.1 | 102 | 102 | 118 | 116 | 107 | 85.8 | 47 | 31.5
NCCOc1cc(C(=O)Nc2cc(OCCN)c3ccccc3n2)nc(C(=O)Nc2cc(OCCN)c3ccccc3n2)c1 | 65.8 | 36.4 | 43.9 | 40.8 | 38.1 | 47.5 | 43.2 | 40.3 | 42.2 | 56.4 | 56.4 | 96 | 60.5 | 42.3 | 27 | 25.8 | 25.2 | 27.9 | 24 | 25.8 | 38.5 | 64.1 |  |  |  |  |  |  |  |  |  |  | 
CC(C)(Sc1cc(C(C)(C)C)c(O)c(C(C)(C)C)c1)Sc1cc(C(C)(C)C)c(O)c(C(C)(C)C)c1 | 88.5 | 92.3 | 85.6 | 105 | 108 | 90.4 | 96.2 | 94.3 | 79.1 | 103 | 91.6 | 84.4 | 92.5 | 86.2 | 91.3 | 86.4 | 98.4 | 92.8 | 84.8 | 92.7 | 93 | 84.8 | 79.7 | 88.3 | 94.6 | 83.7 | 98.9 | 105 | 95.5 | 94.5 | 81.4 | 90.2 | 94
Cc1noc(N[S+](=O)([O-])c2ccc(N)cc2)c1C | 92.3 | 91.3 | 109 | 97.9 | 95.6 | 101 | 109 | 114 | 96 | 92 | 104 | 98 | 92.7 | 88.6 | 89.5 | 108 | 102 | 113 | 111 | 106 | 91.6 | 104 | 92.3 | 90.7 | 71.5 | 92.6 | 89 | 89.7 | 92.6 | 96.2 | 90.3 | 94.6 | 81.4
CC[C@H](C)C(=O)O[C@H]1C[C@@H](C)\C=C2\C=C/[C@H](C)[C@H](CC[C@@H]3C[C@@H](O)CC(=O)O3)[C@@H]12 | 95.9 | 103 | 100 | 108 | 96.3 | 92.8 | 90.6 | 89.9 | 93.3 | 69.4 | 53.5 | 87.5 | 89.1 | 89.7 | 98.9 | 83.5 | 90 | 88.4 | 80.5 | 86.8 | 77.1 | 71.4 | 80.3 | 93 | 84.6 | 97 | 91.7 | 91 | 91.3 | 82 | 90.7 | 77.4 | 54.9
CN1CCC(CNc2ccc3ncc(-c4cccc(OC(F)(F)F)c4)n3n2)CC1 | 101 | 106 | 112 | 113 | 97.8 | 125 | 114 | 104 | 91 | 70.7 | 5.88 | 87.2 | 83.3 | 85.2 | 99.5 | 89.4 | 91.4 | 97.9 | 85.8 | 85.6 | 73.5 | 5.17 | 116 | 93.1 | 97.1 | 88.2 | 99.4 | 97.5 | 104 | 94.9 | 79.3 | 68.5 | 4.98
O=C(O)c1cccc(-c2noc(-c3ccccc3F)n2)c1 | 106 | 111 | 100 | 133 | 112 | 121 | 109 | 107 | 110 | 96.8 | 101 | 86.3 | 90.6 | 106 | 103 | 86.2 | 98 | 99.6 | 94.7 | 94.2 | 91.9 | 89.9 | 93.2 | 101 | 101 | 95.2 | 96.6 | 98.9 | 112 | 95.8 | 103 | 87.8 | 81.3
CN(C)C(=O)[C@H](O)[C@H](Cc1ccccc1)NC(=O)c1cc2cc(Cl)ccc2[nH]1 | 107 | 107 | 115 | 122 | 122 | 132 | 144 | 145 | 171 | 145 | 138 | 111 | 105 | 103 | 103 | 124 | 126 | 127 | 109 | 123 | 121 | 112 | 83.9 | 109 | 109 | 109 | 113 | 115 | 132 | 133 | 118 | 136 | 126
O=C(O)c1cccnc1 | 121 | 114 | 130 | 118 | 115 | 123 | 107 | 85.2 | 49.4 | 27.4 | 13.2 | 121 | 123 | 121 | 102 | 124 | 116 | 112 | 101 | 85 | 23.7 | 14.4 | 116 | 117 | 116 | 117 | 118 | 122 | 117 | 98.6 | 61.5 | 22.1 | 10
Cc1nnc(C(=O)NC(C)(C)c2nc(C(=O)NCc3ccc(F)cc3)c(O)c(=O)n2C)o1 | 121 | 112 | 119 | 118 | 104 | 103 | 106 | 101 | 95.6 | 97.9 | 96.6 | 87.6 | 99.4 | 96.8 | 92.4 | 96.7 | 99.1 | 100 | 91.2 | 86.5 | 92.2 | 93.3 | 93.7 | 100 | 107 | 93.1 | 109 | 96.6 | 95 | 96.8 | 93.7 | 104 | 94.5
CCOc1cc(C(=O)Nc2ccc(Cl)c(-c3nc4ccccc4[nH]3)c2)cc(OCC)c1OCC | 79.3 | 104 | 101 | 102 | 104 | 108 | 105 | 115 | 107 | 116 | 63.3 | 72.8 | 90.6 | 81.9 | 92.8 | 93 | 90.3 | 83.5 | 83.2 | 88.2 | 98.1 | 59.1 | 83.8 | 84.3 | 104 | 84.6 | 84.6 | 90.3 | 87.3 | 95 | 109 | 101 | 50.1
Cc1nnc(C(C)C)n1[C@@H]1C[C@H]2CC[C@@H](C1)N2CC[C@H](NC(=O)C1CCC(F)(F)CC1)c1ccccc1 | 70.8 | 93.7 | 112 | 93.1 | 98.7 | 103 | 107 | 104 | 103 | 84.5 | 25.5 | 83.6 | 82.9 | 95.2 | 91.3 | 84.5 | 99.9 | 92 | 88.5 | 84.3 | 91.3 | 26.3 | 68.3 | 93.2 | 82.6 | 84.8 | 93.2 | 95.5 | 95.1 | 90.3 | 84.4 | 67.1 | 29.9
